Key:
[1] = system: MOG35-55 mouse EAE model of MS
[2] = system: imiquimod (IMQ) mouse model of psoriasis; format: in vivo, Balb/c mice
Method: In the imiquimod (IMQ) mouse model of psoriasis. Balb/c mice (10 males/group) received daily topical IMQ (5% cream) on shaved back and right ear for 5 days. Animals received oral active drug (90 mg-eq MMF/kg twice daily) or vehicle from Day −5 to Day 5. Erythema score was the primary outcome measure. […] The AUCmolar-MMF-GA:AUCmolar-MMF Ratio (%) in mice dosed with active drug at 90 mg/kg was 23.6%.

For CCN(CC)C(=O)COC(=O)/C=C/C(=O)OC [Active drug, (N,N-diethylcarbamoyl)methyl methyl (2E)but-2-ene-1,4-dioate], the “AUCmolar-MMF-GA:AUCmolar-MMF Ratio” value ([1]; female, C57BL/6, mouse, in vivo, 90 mg/kg) was 23.6%, the “EAE clinical score (Day 29 and overall AUC) compared to vehicle” value ([1]; oral 90 mg-eq MMF/kg twice daily on Days 3 to 29, C57BL/6 mice, 5 point scale) was “significant reduction” and the “AUCmolar-MMF-GA:AUCmolar-MMF Ratio” value ([2]; male, Balb/c, mouse, in vivo, 90 mg/kg) was 23.6%. The “Erythema score versus control” value ([2]; oral 90 mg-eq MMF/kg twice daily from Day -5 to Day 5, Balb/c mice, topical IMQ 5% cream) was “significant reduction”.

Reference: patent US20150190360A1, “METHODS OF ADMINISTERING MONOMETHYL FUMARATE” (XenoPort, Inc., priority 2013, published 2015)
